# Laboratory results published in patent publication US20200009118A1, “COMPOSITIONS AND METHODS FOR THE TREATMENTOF NEURODEGENERATIVE AND OTHER DISEASES” (Glialogix, Inc., priority 2017, published 2020).
# How the values were obtained:
# 2D2-TCR MOG (2D2) mice = assay: 2D2 mouse model of optic neuritis, myelin staining of the optic nerve; assay type: in vivo; settings: for Number of animals, average myelin content score Low / Number of animals, average myelin content score high / Number of animals, average myelin content score moderate: sulfasalazine 200 mg/kg or memantine 5 mg/kg IP BID
# From the text: This model serves as an inducible model of optic neuritis with a high rate of penetrance. The development of optic neuritis was monitored by animal observation and histopathology.
# Female 2D2 (strain C57BL/6-Tg(Tcra2D2,Tcrb2D2)1Kuch/J) and WT mice (C57BL/6) were purchased from The Jackson Laboratory. Each cohort size was 14 animals. Mice were delivered to Ophthy-DS (Kalamazoo, Mich.) under the supervision of Renovo Neural (Cleveland, Ohio) at 8-12 weeks of age and then acclimated for an additional 4 weeks before beginning the experiment. Animals were housed in pathogen-free, individually-ventilated, enriched cages on a 12 h:12 h light:dark cycle with food and water ad libitum. Mice were monitored daily for welfare and symptoms of optic neuritis.
# After 4 weeks of acclimation, animals were randomized by weight into 4 groups of 14 animals each. To induce optic neuritis, 200 ng of Pertussis toxin was injected into the 2D2 animals on days 1 and 3 as described by Guan et al. Dosing of vehicle or treatment compounds began at day 1. The four cohorts are: • (1) WT mice (C57BL/6) treated with vehicle (200 μl saline IP, BID). This cohort serves as a control for the readouts of optic neuritis disease. • (2) 2D2 mice vehicle treated with vehicle (200 μl saline IP, BID). […] The memantine-treated group served as a control for anti-glutamatergic therapy in the 2D2 model of optic neuritis.
# On day 30, animals were euthanized and perfused. Optic nerves and retinas were dissected out and embedded in paraffin and sections mounted on slides. 5-7 sections of the optic nerve (from one eye) from ten animals in each cohort were stained by Toluidine Blue. Histopathological analysis of the slides and quantitation of the myelin staining intensity was performed blinded by a board-certified pathologist, Dr. Igor Polyakov (Minneapolis, Minn.). Staining intensity of each slide was graded as either low, moderate or high. Both peripheral and central sections of the optic nerve were graded. The intensity of the myelin staining between the cohorts on a per section and a per animal basis was compared using chi-square and Fishers' exact test with a p<0.05 considered significant.
# On a per animal basis, this yielded 20 scores per cohort: average score per section×2 scores per animal (peripheral or central)×10 animals per cohort. On a per section basis, this yielded approximately 110 score per cohort: score per section×5-7 sections per animal×2 scores per section (peripheral or central)×10 animals per cohort.
# [1] = test system: xCT mRNA in primary rat astrocyte cells; assay: qPCR of xCT mRNA in primary astrocytes; assay type: cell-based
# Description: (§1) Primary rat astrocyte cells were purchased from All Cells (Catalog #RCTX-001F, Alameda, Calif.), thawed and resuspended in 13.4 ml of DMEM media (Catalog #12-614F, Lonza, Allendale, N.J.) supplemented with 15% v/v FBS (Catalog #F4135, Sigma-Aldrich, St. Louis, Mo.) and 560 μL aliquoted into wells in a 24-well plate. Cells were incubated at 37° C. with 5% CO2. For each qPCR experiment, 2-3 wells (approximately 42,000-63,000 cells) were transferred to a new 24-well plate with fresh astrocyte media, composed of 50% v/v DMEM, 50% v/v Neurobasal media (Catalog #12348-017), Life Technologies, supplemented with 2 mM glutamine, 300 μM L-cystine. Following 24 hours, cells were then mixed and aliquoted into 24 well plates at approximately 10,000 cells per well in the same media. Compounds to be tested were then added at the indicated concentrations and cells harvested 18 hours later by washing once with PBS (Catalog #P5493, Sigma-Aldrich) and then treated with 300 μl of StemProAccutase cell dissociation reagent (Catalog #A11105-01, Life Technologies) and incubated for 5-10 minutes at 37° C. PBS (300 μl) was added and the cells spun down in a microfuge for 5 minutes at 2,000×g at 4° C. The supernatant was removed and mRNA was isolated from the cells by using the Purelink microscale RNA extraction kit (Catalog #12183016, Life Technologies) according to the manufacturer's instructions. The mRNA resuspended in 12-22 μl of RNase-free water. cDNA was prepared by use of the Superscript VILO kit (Catalog #11755050, Life Technologies) according to the manufacturer's instructions. The cDNA was eluted in a final volume of 20 μl RNase-free water in and 4 μl was used for each qPCR reaction. qPCR reactions and primers were as described in Example 11.
# (§2) To determine if tunicamycin increased levels of xCT mRNA, Tunicamycin (5 ng/ml) was added to the primary astrocyte cell cultures in astrocyte media. xCT gene expression was determined by qPCR after 18 hours of exposure to tunicamycin.
# (§3) The Cycle threshold is abbreviated Ct. The change in Ct equals [Ct (minus test agent)−Ct (plus test agent)]. Changes in Ct of the test genes xCT and Lcn-2 are normalized by subtracting the change in Ct of the control gene, either gamma-actin or Hypoxanthine-guanine phosphoribosyl transferase (HPRT). Ct values are converted to absolute values by the formula: absolute value=2^^(normalized change in Ct). Absolute values are converted to percent change by multiplying the absolute value by 100.
# (§4) Using the methods described in Example 11, various agents known to cause activation of neuroinflammatory cells and/or cause or reflect stress and damage to neurons, axons and/or oligodendrocytes were tested for causing an increase in xCT levels in primary rat astrocytes.
# [2] = test system: Lcn-2 mRNA in primary rat astrocyte cells; assay: qPCR of Lcn-2 mRNA in primary astrocytes; assay type: cell-based; settings: astrocyte media
# Description: as §1, §2, §3, §4
# [3] = Total (central + peripheral, 20 scores), day 30
# [4] = per section basis, Central Region, day 30
# [5] = per section basis, Peripheral Region, day 30
# [6] = per section basis, Total, day 30
# [7] = 1 ng/ml, astrocyte media, control gene HPRT
# [8] = 1 ng/ml, astrocyte media, control gene gamma-actin
# [9] = 100 ng/ml, astrocyte media, control gene HPRT
# [10] = 100 ng/ml, astrocyte media, control gene gamma-actin
# [11] = 100 ng/ml, control gene gamma-actin
# [12] = 20 ng/ml, astrocyte media, control gene gamma-actin
# [13] = 5 ng/ml, astrocyte media, 18 hours
# [14] = 25 ng/ml, astrocyte media, control gene HPRT
# [15] = 25 ng/ml, astrocyte media, control gene gamma-actin
# [16] = 5 μM, astrocyte media, control gene gamma-actin
# [17] = 50 μM, astrocyte media, control gene gamma-actin
# [18] = 200 ng/ml, astrocyte media, control gene gamma-actin
molecule,measurement,setting,value
CC12CC3CC(C)(C1)CC(N)(C3)C2 [memantine],"Number of animals, average myelin content score Low","2D2-TCR MOG (2D2) mice; Central Region, day 30",0
same,"Number of animals, average myelin content score high","2D2-TCR MOG (2D2) mice; Central Region, day 30",3
same,"Number of animals, average myelin content score moderate","2D2-TCR MOG (2D2) mice; Central Region, day 30",7
same,"Number of animals, average myelin content score Low","2D2-TCR MOG (2D2) mice; Peripheral Region, day 30",2
same,"Number of animals, average myelin content score high","2D2-TCR MOG (2D2) mice; Peripheral Region, day 30",3
same,"Number of animals, average myelin content score moderate","2D2-TCR MOG (2D2) mice; Peripheral Region, day 30",5
same,"Number of animal scores, myelin content High",2D2-TCR MOG (2D2) mice; [3],6
same,"Number of animal scores, myelin content Low",2D2-TCR MOG (2D2) mice; [3],2
same,"Number of animal scores, myelin content Moderate",2D2-TCR MOG (2D2) mice; [3],12
same,myelin content compared to the vehicle-treated 2D2 animals,"2D2-TCR MOG (2D2) mice; optic nerve, day 30",highly significant increase in myelin content
same,"Number of sections, myelin content Low",2D2-TCR MOG (2D2) mice; [4],0
same,"Number of sections, myelin content high",2D2-TCR MOG (2D2) mice; [4],14
same,"Number of sections, myelin content moderate",2D2-TCR MOG (2D2) mice; [4],41
same,"Number of sections, myelin content Low",2D2-TCR MOG (2D2) mice; [5],10
same,"Number of sections, myelin content high",2D2-TCR MOG (2D2) mice; [5],14
same,"Number of sections, myelin content moderate",2D2-TCR MOG (2D2) mice; [5],31
same,"Number of section scores, myelin content High",2D2-TCR MOG (2D2) mice; [6],28
same,"Number of section scores, myelin content Low",2D2-TCR MOG (2D2) mice; [6],10
same,"Number of section scores, myelin content Moderate",2D2-TCR MOG (2D2) mice; [6],72
same,"Percent scores, Myelin content-Total High",2D2-TCR MOG (2D2) mice; per-animal basis,30%
same,"Percent scores, Myelin content-Total Low",2D2-TCR MOG (2D2) mice; per-animal basis,10%
same,"Percent scores, Myelin content-Total Moderate",2D2-TCR MOG (2D2) mice; per-animal basis,60%
same,"Percent scores, Myelin content-Total High",2D2-TCR MOG (2D2) mice; per-section basis,25%
same,"Percent scores, Myelin content-Total Low",2D2-TCR MOG (2D2) mice; per-section basis,9%
same,"Percent scores, Myelin content-Total Moderate",2D2-TCR MOG (2D2) mice; per-section basis,65%
IL1-beta: inflammatory cytokine,"xCT, Change in Ct normalized to control gene",[1]; [7],1.536
same,"xCT, Fold change normalized",[1]; [7],2.90
same,"xCT, Percent change normalized",[1]; [7],290%
same,"xCT, Change in Ct normalized to control gene",[1]; [8],1.538
same,"xCT, Fold change normalized",[1]; [8],2.90
same,"xCT, Percent change normalized",[1]; [8],290%
same,"xCT, Change in Ct normalized to control gene",[1]; [9],1.515
same,"xCT, Fold change normalized",[1]; [9],2.86
same,"xCT, Percent change normalized",[1]; [9],286%
same,"xCT, Change in Ct normalized to control gene",[1]; [10],2.560
same,"xCT, Fold change normalized",[1]; [10],5.90
same,"xCT, Percent change normalized",[1]; [10],590%
same,"Lcn-2, Percent change normalized","[2]; 1 ng/ml, control gene HPRT","23,480%"
same,"Lcn-2, Percent change normalized","[2]; 1 ng/ml, control gene gamma-actin","23,522%"
same,"Lcn-2, Percent change normalized","[2]; 100 ng/ml, control gene HPRT","9,185%"
same,"Lcn-2, Percent change normalized",[2]; [11],"18,958%"
IL-6: inflammatory cytokine,"xCT, Change in Ct normalized to control gene",[1]; [12],0.366
same,"xCT, Fold change normalized",[1]; [12],1.29
same,"xCT, Percent change normalized",[1]; [12],129%
same,"xCT, Change in Ct normalized to control gene",[1]; [10],0.380
same,"xCT, Fold change normalized",[1]; [10],1.30
same,"xCT, Percent change normalized",[1]; [10],130%
same,"Lcn-2, Percent change normalized","[2]; 20 ng/ml, control gene gamma-actin",146%
same,"Lcn-2, Percent change normalized",[2]; [11],130%
Tunicamycin,"xCT, Absolute change normalized to Gamma-actin",[1]; [13],56.1
same,"xCT, Absolute change normalized to HPRT",[1]; [13],23.1
same,"xCT, Change in Ct (not normalized)",[1]; [13],5.529
same,"xCT, Change in Ct normalized to Gamma actin",[1]; [13],5.809
same,"xCT, Change in Ct normalized to HPRT",[1]; [13],4.530
same,"xCT, Ct with agent",[1]; [13],25.060
same,"xCT, Percent change normalized to Gamma-actin",[1]; [13],"5,606%"
same,"xCT, Percent change normalized to HPRT",[1]; [13],"2,310%"
same,xCT expression increased by,"[1]; 5 ng/ml, regardless of normalization to gamma-actin or HPRT","over 2,000%"
same,"xCT, Change in Ct normalized to control gene",[1]; [14],4.540
same,"xCT, Fold change normalized",[1]; [14],23.26
same,"xCT, Percent change normalized",[1]; [14],"2,326%"
same,"xCT, Change in Ct normalized to control gene",[1]; [15],5.915
same,"xCT, Fold change normalized",[1]; [15],60.34
same,"xCT, Percent change normalized",[1]; [15],"6,034%"
same,"Lcn-2, Absolute change normalized to Gamma-actin","[2]; 5 ng/ml, 18 hours",64.6
same,"Lcn-2, Absolute change normalized to HPRT","[2]; 5 ng/ml, 18 hours",32.3
same,"Lcn-2, Change in Ct (not normalized)","[2]; 5 ng/ml, 18 hours",5.734
same,"Lcn-2, Change in Ct normalized to Gamma actin","[2]; 5 ng/ml, 18 hours",6.014
same,"Lcn-2, Change in Ct normalized to HPRT","[2]; 5 ng/ml, 18 hours",5.015
same,"Lcn-2, Ct with agent","[2]; 5 ng/ml, 18 hours",27.123
same,"Lcn-2, Percent change normalized to Gamma-actin","[2]; 5 ng/ml, 18 hours","6,460%"
same,"Lcn-2, Percent change normalized to HPRT","[2]; 5 ng/ml, 18 hours","3,230%"
same,"Lcn-2, Percent change normalized","[2]; 25 ng/ml, control gene HPRT","2,290%"
same,"Lcn-2, Percent change normalized","[2]; 25 ng/ml, control gene gamma-actin","5,940%"
"OO [H2O2, Hydrogen Peroxide]","xCT, Change in Ct normalized to control gene",[1]; [16],2.484
same,"xCT, Fold change normalized",[1]; [16],5.59
same,"xCT, Percent change normalized",[1]; [16],559%
same,"xCT, Change in Ct normalized to control gene",[1]; [17],2.588
same,"xCT, Fold change normalized",[1]; [17],6.01
same,"xCT, Percent change normalized",[1]; [17],601%
same,"Lcn-2, Percent change normalized","[2]; 5 μM, control gene gamma-actin",15%
same,"Lcn-2, Percent change normalized","[2]; 50 μM, control gene gamma-actin",19%
Pam2CSK4,"xCT, Change in Ct normalized to control gene",[1]; [18],0.65
same,"xCT, Fold change normalized",[1]; [18],1.57
same,"xCT, Percent change normalized",[1]; [18],157%
same,"Lcn-2, Percent change normalized","[2]; 200 ng/ml, control gene gamma-actin","1,602%"
